Experimental data taken from patent publication US9133218B2, “Pesticidally active pyridyl- and pyrimidyl-substituted thiazole derivatives” (Syngenta Participations AG, priority 2012, dated 2015).

Key:
Type in all cases: in vivo
[1] = tested on: Heliothis virescens (Tobacco Budworm); assay: Activity against Heliothis virescens (tobacco budworm), eggs on artificial diet; details: eggs 0-24 h old, 4 days incubation, read-out: activity (egg mortality, larval mortality, growth regulation) against Heliothis virescens
Method: Activity Against Heliothis virescens (Tobacco Budworm)
Eggs (0-24 h old) are placed in 24-well microtiter plate on artificial diet and treated with test solutions by pipetting. After an incubation period of 4 days, samples are checked for egg mortality, larval mortality, and growth regulation.

[2] = tested on: Bemisia tabaci (Cotton White Fly); assay: Activity against Bemisia tabaci (cotton white fly), cotton leaf disc spray test; details: foliar, 144 h, 200 ppm, adults, 6 days after infestation, read-out: activity (mortality and special effects) against Bemisia tabaci
Method: Activity Against Bemisia tabaci (Cotton White Fly)
Cotton leaf discs were placed on agar in a 24-well microtiter plate and sprayed with test solutions. After drying, the leaf discs were infested with 12 to 18 adults. After an incubation period of 6 days after infestation, samples were checked for mortality and special effects (e.g. phytotoxicity).

[3] = tested on: Frankliniellaoccidentalis (Western Flower Thrips); assay: Activity against Frankliniella occidentalis (western flower thrips), sunflower leaf disc spray test; details: foliar, 168 h, mixed-age population, 7 days after treatment, read-out: activity (mortality and special effects) against Frankliniella occidentalis
Method: Activity Against Frankliniellaoccidentalis (Western Flower Thrips)
Sunflower leaf discs are placed on agar in a 24-well microtiter plate and sprayed with test solutions. After drying, the leaf discs are infested with a Frankliniella population of mixed ages. After an incubation period of 7 days after treatment, samples are checked for mortality and special effects (e.g. phytotoxicity).

[4] = tested on: Myzus persicae (Green Peach Aphid); assay: Activity against Myzus persicae (green peach aphid), sunflower leaf disc spray test; details: foliar, 144 h, 200 ppm, mixed-age aphid population, 6 days incubation, read-out: activity (mortality) against Myzus persicae
From the text: Activity Against Myzus persicae (Green Peach Aphid)

Measured: mortality at 200 ppm

CO/N=C1\CCCc2ccc(-c3cnc(-c4cccnc4)s3)nc21 [Compound 1.002]
> 80%: all assays above
